Paper PMC3596387, “Tripolin A, a Novel Small-Molecule Inhibitor of Aurora A Kinase, Reveals New Regulation of HURP's Distribution on Microtubules” (PLoS ONE, 2013)
Read-outs that look alike come from different tables or passages of the source.

Legend:
Assay type in all cases: biochemical
Aurora A = target: T1, Aurora A (Homo sapiens, UniProt O14965); assay: in vitro kinase assay (Z'LYTE Ser/Thr […] peptide; Easylite luminescence ATP detection)
T1 construct: gene AURKA; full length in pET21d, 6xHis tag (Aurora A-6xHis), E. coli, Ni-NTA purified
T1 sequence (O14965 1-403): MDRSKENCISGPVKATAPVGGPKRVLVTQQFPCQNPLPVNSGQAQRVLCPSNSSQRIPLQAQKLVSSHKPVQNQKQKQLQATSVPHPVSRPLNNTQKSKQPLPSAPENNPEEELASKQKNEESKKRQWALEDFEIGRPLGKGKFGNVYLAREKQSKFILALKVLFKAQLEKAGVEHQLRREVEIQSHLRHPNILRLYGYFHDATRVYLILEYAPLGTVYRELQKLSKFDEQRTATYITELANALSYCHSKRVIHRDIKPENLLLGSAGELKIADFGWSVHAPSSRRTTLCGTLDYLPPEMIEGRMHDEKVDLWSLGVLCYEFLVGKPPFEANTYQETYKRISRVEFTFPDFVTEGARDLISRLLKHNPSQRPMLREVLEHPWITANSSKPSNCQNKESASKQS

FGFR = target: T2, FGFR; assay: Z'LYTE kinase selectivity assay
T2 construct: gene FGFR1; selectivity panel
From the text: Z'LYTE kinase selectivity assay on FGFR

IGF1R = target: T3, IGF1R (Homo sapiens, UniProt P08069); assay: Z'LYTE kinase selectivity assay
T3 construct: selectivity panel
From the text: Z'LYTE kinase selectivity assay on IGF1R

KDR = target: T4, KDR (Homo sapiens, UniProt P35968); assay: Z'LYTE kinase selectivity assay
T4 construct: selectivity panel
From the text: Z'LYTE kinase selectivity assay on KDR

EGFR = target: T5, EGFR (Homo sapiens, UniProt P00533); assay: Z'LYTE kinase selectivity assay
T5 construct: selectivity panel
From the text: Z'LYTE kinase selectivity assay on EGFR

Aurora B = target: T6, Aurora B (Homo sapiens, UniProt Q96GD4); assay: Z'LYTE kinase selectivity assay
T6 construct: gene AURKB; selectivity panel
From the text: Z'LYTE kinase selectivity assay on Aurora B

T6 sequence (Q96GD4 whole entry): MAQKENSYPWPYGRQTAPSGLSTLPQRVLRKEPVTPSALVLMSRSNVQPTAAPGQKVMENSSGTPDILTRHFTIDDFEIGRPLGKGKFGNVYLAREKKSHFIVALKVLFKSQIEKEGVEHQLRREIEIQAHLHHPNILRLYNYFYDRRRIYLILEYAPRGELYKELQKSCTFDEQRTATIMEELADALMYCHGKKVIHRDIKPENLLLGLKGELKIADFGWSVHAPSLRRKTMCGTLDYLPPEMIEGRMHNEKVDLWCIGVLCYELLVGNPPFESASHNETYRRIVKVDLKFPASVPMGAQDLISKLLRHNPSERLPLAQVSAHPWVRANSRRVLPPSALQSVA
T5 sequence (P00533 25-1210): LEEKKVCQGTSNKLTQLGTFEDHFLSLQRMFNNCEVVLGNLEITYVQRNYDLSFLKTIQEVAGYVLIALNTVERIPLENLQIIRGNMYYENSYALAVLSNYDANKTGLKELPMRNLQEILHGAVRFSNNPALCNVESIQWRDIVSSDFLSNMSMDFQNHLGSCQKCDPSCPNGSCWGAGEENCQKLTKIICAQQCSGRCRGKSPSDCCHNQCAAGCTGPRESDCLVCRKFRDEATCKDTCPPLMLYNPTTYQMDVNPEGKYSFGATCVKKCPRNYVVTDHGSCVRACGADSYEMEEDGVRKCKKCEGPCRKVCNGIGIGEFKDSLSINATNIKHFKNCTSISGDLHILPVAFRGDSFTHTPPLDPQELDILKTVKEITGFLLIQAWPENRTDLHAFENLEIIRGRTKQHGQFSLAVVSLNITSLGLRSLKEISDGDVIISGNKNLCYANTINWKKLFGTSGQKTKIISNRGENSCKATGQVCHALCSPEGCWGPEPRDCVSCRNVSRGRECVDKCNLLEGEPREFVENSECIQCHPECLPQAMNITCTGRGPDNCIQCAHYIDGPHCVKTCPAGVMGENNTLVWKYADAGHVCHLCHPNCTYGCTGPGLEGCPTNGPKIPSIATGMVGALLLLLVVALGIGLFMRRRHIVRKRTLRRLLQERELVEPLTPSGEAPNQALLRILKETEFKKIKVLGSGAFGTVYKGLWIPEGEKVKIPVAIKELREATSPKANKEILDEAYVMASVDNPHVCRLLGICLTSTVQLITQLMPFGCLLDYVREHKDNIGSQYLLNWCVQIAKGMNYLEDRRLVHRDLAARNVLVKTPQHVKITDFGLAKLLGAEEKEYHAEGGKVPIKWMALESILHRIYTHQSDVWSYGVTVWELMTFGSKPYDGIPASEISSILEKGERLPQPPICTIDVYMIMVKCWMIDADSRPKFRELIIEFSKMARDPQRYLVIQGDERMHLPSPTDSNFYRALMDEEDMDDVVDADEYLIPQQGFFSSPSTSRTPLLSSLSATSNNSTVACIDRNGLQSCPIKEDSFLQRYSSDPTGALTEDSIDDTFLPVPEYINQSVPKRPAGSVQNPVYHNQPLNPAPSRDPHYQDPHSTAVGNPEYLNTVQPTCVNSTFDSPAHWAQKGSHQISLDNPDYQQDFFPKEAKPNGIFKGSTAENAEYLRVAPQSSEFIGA
T4 sequence (P35968 20-1356): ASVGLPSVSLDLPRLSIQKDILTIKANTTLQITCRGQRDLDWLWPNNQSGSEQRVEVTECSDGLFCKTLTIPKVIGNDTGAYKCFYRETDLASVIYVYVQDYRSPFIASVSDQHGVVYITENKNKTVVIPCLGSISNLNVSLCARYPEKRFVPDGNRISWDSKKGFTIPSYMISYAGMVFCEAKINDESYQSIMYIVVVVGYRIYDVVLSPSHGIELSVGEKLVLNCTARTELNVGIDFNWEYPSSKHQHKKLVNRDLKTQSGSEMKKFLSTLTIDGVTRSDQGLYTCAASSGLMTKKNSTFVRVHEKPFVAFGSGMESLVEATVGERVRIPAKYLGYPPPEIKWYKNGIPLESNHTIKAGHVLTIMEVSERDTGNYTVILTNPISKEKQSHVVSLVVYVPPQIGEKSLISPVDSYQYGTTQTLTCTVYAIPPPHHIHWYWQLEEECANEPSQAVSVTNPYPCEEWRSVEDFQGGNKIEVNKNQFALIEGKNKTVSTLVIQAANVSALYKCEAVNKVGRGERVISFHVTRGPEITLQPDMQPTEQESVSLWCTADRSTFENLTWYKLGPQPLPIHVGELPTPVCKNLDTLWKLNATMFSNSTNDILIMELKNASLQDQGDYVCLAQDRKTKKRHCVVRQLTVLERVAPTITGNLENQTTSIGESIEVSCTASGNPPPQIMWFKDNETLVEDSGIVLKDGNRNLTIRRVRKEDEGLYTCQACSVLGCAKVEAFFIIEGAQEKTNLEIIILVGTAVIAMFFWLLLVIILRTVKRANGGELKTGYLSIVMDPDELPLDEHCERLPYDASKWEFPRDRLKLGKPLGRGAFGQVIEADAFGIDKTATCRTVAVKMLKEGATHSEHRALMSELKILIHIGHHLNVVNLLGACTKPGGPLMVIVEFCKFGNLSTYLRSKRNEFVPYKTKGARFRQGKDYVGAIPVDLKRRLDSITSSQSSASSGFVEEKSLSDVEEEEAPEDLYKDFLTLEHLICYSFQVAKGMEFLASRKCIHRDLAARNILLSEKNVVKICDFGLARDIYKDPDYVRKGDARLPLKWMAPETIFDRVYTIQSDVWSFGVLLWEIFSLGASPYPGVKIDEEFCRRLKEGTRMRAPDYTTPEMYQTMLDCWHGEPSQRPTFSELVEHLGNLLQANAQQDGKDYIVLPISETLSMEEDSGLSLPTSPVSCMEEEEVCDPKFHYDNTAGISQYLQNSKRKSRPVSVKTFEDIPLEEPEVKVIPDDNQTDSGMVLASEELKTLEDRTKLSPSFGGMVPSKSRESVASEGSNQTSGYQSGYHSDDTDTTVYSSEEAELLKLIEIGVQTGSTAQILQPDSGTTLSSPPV
T3 sequence (P08069 31-736): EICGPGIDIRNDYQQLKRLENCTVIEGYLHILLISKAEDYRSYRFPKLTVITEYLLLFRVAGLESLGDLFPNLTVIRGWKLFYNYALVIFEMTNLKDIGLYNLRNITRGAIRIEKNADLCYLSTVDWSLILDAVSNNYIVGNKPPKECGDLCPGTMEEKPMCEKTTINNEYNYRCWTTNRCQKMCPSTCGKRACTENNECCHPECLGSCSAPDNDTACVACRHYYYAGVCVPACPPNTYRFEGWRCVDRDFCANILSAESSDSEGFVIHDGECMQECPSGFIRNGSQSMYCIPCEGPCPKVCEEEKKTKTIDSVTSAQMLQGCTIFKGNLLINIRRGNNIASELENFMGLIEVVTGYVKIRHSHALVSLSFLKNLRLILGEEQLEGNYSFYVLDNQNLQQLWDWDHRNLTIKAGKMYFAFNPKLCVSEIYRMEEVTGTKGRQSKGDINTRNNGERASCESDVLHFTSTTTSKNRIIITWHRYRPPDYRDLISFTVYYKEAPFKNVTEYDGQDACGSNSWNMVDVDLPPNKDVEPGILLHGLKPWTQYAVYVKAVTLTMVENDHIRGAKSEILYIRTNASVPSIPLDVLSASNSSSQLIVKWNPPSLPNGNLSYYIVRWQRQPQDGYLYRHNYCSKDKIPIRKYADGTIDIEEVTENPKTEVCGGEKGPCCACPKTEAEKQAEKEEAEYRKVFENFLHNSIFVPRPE
T3 sequence (P08069 741-1367): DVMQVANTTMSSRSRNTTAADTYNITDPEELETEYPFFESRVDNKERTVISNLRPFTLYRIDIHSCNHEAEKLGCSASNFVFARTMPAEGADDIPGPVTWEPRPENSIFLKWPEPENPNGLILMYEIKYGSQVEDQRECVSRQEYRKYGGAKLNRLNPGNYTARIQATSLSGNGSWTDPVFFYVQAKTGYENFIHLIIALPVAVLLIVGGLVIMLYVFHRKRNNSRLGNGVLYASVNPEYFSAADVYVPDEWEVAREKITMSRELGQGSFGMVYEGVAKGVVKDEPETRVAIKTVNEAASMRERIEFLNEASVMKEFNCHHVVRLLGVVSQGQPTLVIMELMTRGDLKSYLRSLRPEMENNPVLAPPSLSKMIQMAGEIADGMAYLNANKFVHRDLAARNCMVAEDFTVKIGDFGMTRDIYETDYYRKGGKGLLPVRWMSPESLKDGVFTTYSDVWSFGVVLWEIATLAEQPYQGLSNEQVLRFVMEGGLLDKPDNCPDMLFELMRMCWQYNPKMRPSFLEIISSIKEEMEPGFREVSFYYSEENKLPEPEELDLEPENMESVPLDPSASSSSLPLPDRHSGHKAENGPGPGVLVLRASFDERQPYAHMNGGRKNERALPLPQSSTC

| Compound | IC50 (Aurora A; read-out: Tripolin A) [µM] | IC50 (FGFR; read-out: Tripolin A) [µM] | IC50 (IGF1R; read-out: Tripolin A) [µM] | IC50 (KDR; read-out: Tripolin A) [µM] | IC50 (EGFR; read-out: Tripolin A) [µM] | IC50 (Aurora B; read-out: Tripolin A) [µM] | IC50 (Aurora A; read-out: Tripolin B) [µM] | IC50 (FGFR; read-out: Tripolin B) [µM] | IC50 (IGF1R; read-out: Tripolin B) [µM] | IC50 (KDR; read-out: Tripolin B) [µM] | IC50 (EGFR; read-out: Tripolin B) [µM] | IC50 (Aurora B; read-out: Tripolin B) [µM] |
| --- | --- | --- | --- | --- | --- | --- | --- | --- | --- | --- | --- | --- |
| O=C1Nc2ccccc2C1=Cc1cc(O)ccc1O [Tripolin A, 3-(2,5-Dihydroxy-benzylidene)-1,3-dihydro-indol-1-one] | 1.5 | 33.4 | 14.9 | 17.9 | 11 | 7 | – | – | – | – | – | – |
| O=C1Nc2ccccc2C1=Cc1cnc[nH]1 [Tripolin B, 3-(3H-Imidazol-4-ylmethylene)-1,3-dihydro-indol-2-one] | – | – | – | – | – | – | 2.5 | 38 | 13.2 | 6.5 | 71.7 | 6 |
